Experimental findings from ChEMBL document CHEMBL1201862, “PubChem BioAssay data set” (2004) are described below.

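Step 1: Grow cells in 96-well plates. Step 2: Expose to compound for 48 hours at 5 concentrations. Step 3: Interpolate endpoints linearly; if unreached, use highest concentration. GI50: concentration for 50% inhibition of growth.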 Calls of active or inactive are those of the source. Cut-off read from the data, not from the text of the source: active = GI50 up to about 1.1 µM and inactive = higher.

What all share (experiment): inhibition of tumour cell growth, NCI panel, 48 h
Assay [1] concerns HCT-15.
The subject of assay [2] is SF-295.
The test system of assay [3] is CAKI-1.
For assay [4], the system named is TK-10.
For assay [5], the system named is OVCAR-3.
Assay [6] relates to IGROV-1.
Assay [7] concerns U-251.
The test system of assay [8] is M14.
Assay [9] has as its system NCI-H226.
Assay [10] concerns HT-29.
For assay [11], the system named is 786-0.
For assay [12], the system named is SR.
Assay [13] concerns OVCAR-4.
Assay [14] deals with HCT-116.
Assay [15] has as its system Malme-3M.
In assay [16] the test system is HOP-92.

As for `Oc1ncnc2c1sc(=S)n2-c1ccccc1`, the GI50 in [1] was above 100 µM; in [2], > 100 µM (inactive); in assay [3], > 100 µM (inactive); in assay [4], > 100 µM (inactive); in [5] it was > 100 µM (inactive); in assay [6] it was > 100 µM (inactive). The GI50 in [7], in assay [8], in assay [9], in assay [10], in [11] and in assay [12] was > 100 µM (inactive) each time. Besides, the GI50 in assay [13] was > 100 µM (inactive); in [14] it was > 100 µM (inactive); in [15], > 100 µM (inactive); in assay [16] it was 70.3 µM (inactive).
As for `Cc1ccc(/N=N/c2c(-c3ccccc3)nn(C(=O)CC(=O)Nc3ccc(Cl)cc3)c2-c2ccccc2)cc1`, the GI50 in assay [1] is 56.4 µM; in assay [2], 24.4 µM (inactive); in assay [3], 55 µM (inactive); in assay [5], 26.2 µM (inactive); in assay [6], > 100 µM (inactive); in assay [7] it was 40 µM (inactive). Further, the GI50 in assay [8] was 65.2 µM (inactive); in assay [9], 36.6 µM (inactive); in assay [10] it was 65.3 µM (inactive); in assay [11] it was 36.5 µM (inactive); in assay [12], 12.3 µM (inactive); in assay [13], 77.3 µM (inactive). In addition, the values for the GI50 in [14], in [15] and in [16] were 61.5 µM (inactive), 83.6 µM (inactive) and 23.9 µM (inactive), respectively.
For `COC(=O)[C@H](C)[C@H]1CC[C@@](C)([C@H]2CC3C(C)(C)[C@H]4CCC(C)=C[C@H]4C[C@@]3(C)O2)OO1` (stereo partly drawn), the GI50 was 10.5 µM in assay [1]; 14.7 µM (inactive) in assay [2]; 5.13 µM (inactive) in [3]; 15.3 µM (inactive) in [4]; 13.2 µM (inactive) in assay [5]; 5.69 µM (inactive) in assay [6]. Besides, the GI50 in assay [7] was 13 µM (inactive); in assay [8] it was 12.6 µM (inactive); in [9] it was 14.7 µM (inactive); in assay [10], 13.5 µM (inactive); in assay [11], 3.33 µM (inactive); in [12], 9.12 µM (inactive). Moreover, the GI50 in assay [13] was 11.9 µM (inactive); in [14], 10.5 µM (inactive); in [15], 14.1 µM (inactive); in assay [16], 2.86 µM (inactive).
For `C=C1CCC2C(C)(CO)C(O)CCC2(C)C1C/C=C1/CCOC1=O` (stereo not drawn), the GI50 in assay [1] is above 100 µM; in assay [2] it was > 100 µM (inactive); in [3] it was > 100 µM (inactive); in assay [4], > 100 µM (inactive); in assay [5] it was > 100 µM (inactive); in assay [6], > 100 µM (inactive). For the same compound, the GI50 in assay [7], in assay [8], in assay [9], in assay [10], in assay [11] and in [12] was > 100 µM (inactive) throughout. The GI50 in assay [13], in [14], in assay [15] and in [16] was > 100 µM (inactive) each time.
On to `NS(=O)(=O)c1ccc(NC(=O)Cc2nc3ccccc3s2)cc1`, for which the GI50 in assay [1] is 17.7 µM; in [2] it was 19 µM (inactive); in assay [3] it was 16.5 µM (inactive); in assay [4], 24.1 µM (inactive); in assay [5], 16.8 µM (inactive); in assay [6], 15.7 µM (inactive). Further, the GI50 in [7] was 15.2 µM (inactive); in assay [8] it was 15.7 µM (inactive); in assay [9], 17.9 µM (inactive); in [10], 18.3 µM (inactive); in assay [11], 19.4 µM (inactive); in assay [12], 20.1 µM (inactive). The GI50 in [13] is 19.3 µM (inactive); in assay [14], 16.6 µM (inactive); in assay [15], 16 µM (inactive); in assay [16] it was 16.2 µM (inactive).
Regarding `COC(=O)C1Cc2c(n(C)c3ccccc23)C(c2ccccc2)N1` (stereo not drawn), the GI50 is 14.2 µM in assay [1]; > 100 µM (inactive) in [2]; > 100 µM (inactive) in assay [3]; > 100 µM (inactive) in assay [4]; 53 µM (inactive) in assay [5]; 45.8 µM (inactive) in [6]. The GI50 in assay [7] was 48 µM (inactive); in assay [8] it was > 100 µM (inactive); in assay [9], 22.6 µM (inactive); in assay [10] it was 18.9 µM (inactive); in [11], 80 µM (inactive); in assay [12], 67.9 µM (inactive). The GI50 is 50.5 µM (inactive) in [13], 34.4 µM (inactive) in assay [14], > 100 µM (inactive) in assay [15] and > 100 µM (inactive) in assay [16].
For the compound `CCCNc1ncnc2c1cnn2C`, the GI50 in [1] was above 100 µM; in assay [2], > 100 µM (inactive); in assay [3], > 100 µM (inactive); in [4], > 100 µM (inactive); in assay [5], > 100 µM (inactive); in assay [6] it was > 100 µM (inactive). Moreover, the GI50 in [7], in assay [8], in assay [9], in assay [10], in assay [11] and in assay [12] was > 100 µM (inactive) in each case. For the same compound, the GI50 in assay [13], in [14], in assay [15] and in assay [16] was > 100 µM (inactive) each time.
Turning to `CC(=O)C(CN(C)Cc1ccccc1)C(c1ccccc1)c1c(O)c2ccccc2oc1=O` (stereo not drawn), the GI50 in [1] is above 100 µM; in assay [2], > 100 µM (inactive); in assay [3], > 100 µM (inactive); in assay [4], > 100 µM (inactive); in assay [6], > 100 µM (inactive); in [7] it was > 100 µM (inactive). Further, the GI50 in assay [8] was > 100 µM (inactive); in assay [9], 10.4 µM (inactive); in assay [10], > 100 µM (inactive); in assay [11], > 100 µM (inactive); in assay [12], > 100 µM (inactive); in assay [13] it was > 100 µM (inactive). Also, the values for the GI50 in [14], in [15] and in assay [16] were > 100 µM (inactive), > 100 µM (inactive) and 31.9 µM (inactive), respectively.
Take `CCN(CC)[C@@H]1c2cc3c(cc2C(c2cc(OC)c(O)c(OC)c2)C2C(=O)CO[C@@H]21)OCO3` (stereo partly drawn): the GI50 was above 100 µM in assay [1]; > 100 µM (inactive) in assay [2]; > 100 µM (inactive) in [3]; > 100 µM (inactive) in assay [4]; > 100 µM (inactive) in assay [6]; > 100 µM (inactive) in assay [7]. In addition, the GI50 in [8], in assay [9], in [10], in [11], in [12] and in assay [13] was > 100 µM (inactive) in each case. The GI50 in assay [14], in assay [15] and in [16] was > 100 µM (inactive) throughout.
For the compound `CC(=O)OC1CC2C(C)(C)OC(=O)CC(OC(C)=O)[C@]2(C)C2CCC3(C)C(=CCC3[C@H]3COC(=O)C3)[C@]12C` (stereo partly drawn), the GI50 in assay [1] is above 100 µM; in assay [2] it was 41.5 µM (inactive); in assay [3], > 100 µM (inactive); in assay [4] it was > 100 µM (inactive); in assay [5], 94 µM (inactive); in [6], > 100 µM (inactive). In addition, the GI50 in assay [7] is > 100 µM (inactive); in assay [8], 32.7 µM (inactive); in assay [9], > 100 µM (inactive); in assay [10], 60.5 µM (inactive); in [11], > 100 µM (inactive); in assay [12], 24 µM (inactive). Besides, the GI50 in assay [13] was > 100 µM (inactive); in [14], 61.5 µM (inactive); in assay [15], > 100 µM (inactive); in assay [16] it was 26.1 µM (inactive).
For the compound `CC1C[C@H](C)CC(C(O)CC2CC(=O)N(Cc3ccccc3)C(=O)C2)C1O` (stereo partly drawn), the GI50 in [2], in [3], in assay [4], in assay [5], in assay [6] and in assay [7] was > 100 µM (inactive) each time. Further, the GI50 in [8], in assay [9], in assay [10], in assay [11], in assay [12] and in assay [13] was > 100 µM (inactive) in each case. Besides, the GI50 in assay [14], in [15] and in assay [16] was > 100 µM (inactive) throughout.
Consider `C=C1CC[C@@H]2C(C)(C)CCC[C@@]2(C)[C@@H]1Cc1cc(O)ccc1O`, for which the GI50 was 3.09 µM in assay [1]; 10.2 µM (inactive) in assay [2]; 8.26 µM (inactive) in assay [3]; 3.17 µM (inactive) in [4]; 5.31 µM (inactive) in assay [5]; 2.13 µM (inactive) in assay [6]. Also, the GI50 in assay [7] is 3.72 µM (inactive); in assay [8] it was 11.8 µM (inactive); in assay [9], 2.55 µM (inactive); in assay [10], 16.5 µM (inactive); in [11] it was 3.4 µM (inactive); in assay [12], 2.42 µM (inactive). For the same compound, the GI50 in assay [13] was 1.8 µM (inactive); in [14] it was 4.62 µM (inactive); in [15], 5.25 µM (inactive); in assay [16] it was 2.79 µM (inactive).
